Experiments:
Type in all cases: physicochemical
[1] = Solvent solubility; details: for Solvent solubility, PGMEA / Solvent solubility, Butyl acetate / Solvent solubility, Toluene: 25° C.
Experimental: In a test tube, 0.1 g of the synthesized photoacid generator was placed, and an organic solvent (butyl acetate, toluene or PGMEA) was added thereto in 0.2 g portions under a condition where the temperature was adjusted to 25° C. until the photoacid generator was completely dissolved. In this connection, in the case where the photoacid generator was not completely dissolved even when 20 g of the solvent was added, the photoacid generator was evaluated as one that was not dissolved.

[2] = Molar extinction coefficient at i-line (365 nm), UV-visible spectrophotometer; details: 365 nm (i-line), 0.25 mmol/L in acetonitrile, 1 cm cell
Experimental: The synthesized photoacid generator was diluted to 0.25 mmol/L with acetonitrile, and using an ultraviolet-visible spectrophotometer (UV-2550 available from SHIMADZU CORPORATION), the absorbance in a range of 200 nm to 500 nm was measured with a cell having an optical path length (a cell length) of 1 cm. The molar extinction coefficient of i-line (365 nm) (ε365) was calculated from the following equation. ε365(L·mol^−1·cm^−1)=A365/(0.00025 mol/L×1 cm) [In the equation, A365 represents the absorbance at 365 nm.] <Resist Curing Properties>

[3] = Thermal decomposition temperature (TG/DTA, 2% weight reduction); details: point of 2% weight reduction, 10° C./minute, nitrogen atmosphere
Experimental: The synthesized photoacid generator was measured for the change in weight under a temperature increasing condition of 10° C./minute from 30° C. to 500° C. under a nitrogen atmosphere using a thermal gravimetric/differential thermal analyzer (TG/DTA 6200, available from Seiko Instruments Inc.), and a point where the weight was reduced by 2% was defined as the thermal decomposition temperature.

Compound	Solvent solubility, PGMEA [1] [wt %]	Solvent solubility, Butyl acetate [1] [wt %]	Solvent solubility, Toluene [1] [wt %]	Molar extinction coefficient [2] [L/mol/cm]	Thermal decomposition temperature [3] [°C]	solubility to a solvent (in words) ([1]; summary of Table 1)
COc1cc2c(OC)cccc2cc1C(=O)N(C)OS(=O)(=O)c1c(F)c(F)c(F)c(F)c1F [A-5]	10	10	10	400	225	
CC(=O)c1ccc(Sc2ccc(C(=O)N(C)OS(=O)(=O)CC34CCC(CC3=O)C4(C)C)cc2)cc1 (stereo not shown) [A-6]	15	15	10	450	210	
CN(OS(=O)(=O)CC12CCC(CC1=O)C2(C)C)C(=O)c1c2ccccc2cc2ccccc12 (stereo not shown) [A-8]	5	5	10	9000	240	
CC1(C)C2CCC1(CS(=O)(=O)OC1C(=O)c3cccc4cccc(c34)C1=O)C(=O)C2 (stereo not shown) [A′-1, reference compound]	0.5	1	0.5	330	225	insufficient

Second part, the molecule after the results:

Solvent solubility, PGMEA [1] [wt %]	Solvent solubility, Butyl acetate [1] [wt %]	Solvent solubility, Toluene [1] [wt %]	Molar extinction coefficient [2] [L/mol/cm]	Thermal decomposition temperature [3] [°C]	solubility to a solvent (in words) ([1]; summary of Table 1)	Compound
20	20	12	80	230		CN(OS(=O)(=O)CC12CCC(CC1=O)C2(C)C)C(=O)c1ccc2ccccc2c1 (stereo not shown) [A-1]
15	15	10	120	225		COc1ccc2cc(C(=O)N(C)OS(=O)(=O)CC34CCC(CC3=O)C4(C)C)ccc2c1 (stereo not shown) [A-2]
15	15	10	360	225		COc1cc2c(OC)cccc2cc1C(=O)N(C)OS(=O)(=O)CC12CCC(CC1=O)C2(C)C (stereo not shown) [A-3]
20	20	10	300	225		COc1cc2c(OC)cccc2cc1C(=O)N(C)OS(C)(=O)=O [A-4]
15	15	10	6500	220		COc1ccc2cc(C(=O)N(C)OS(=O)(=O)CC34CCC(CC3=O)C4(C)C)c(=O)oc2c1 (stereo not shown) [A-7]
